Where “and” joins values, the source holds several entries; their conditions need not be identical. Equal entries are not always repeated.

One may read the inhibition in vivo as the change of the read-out against control, counted positive when it falls.

Data set [1] deals with mouse L929 fibrosarcoma cells. In words: necroptosis assay in L929 cells. It is filed as cell-based. The note with it: L929 cells, viability by cellular ATP (Cell Titer-Glo), read-out: pIC50, inhibited necrosis in L929 cells (converted). The procedure:
The efficacy of RIP1 inhibitors can be tested […] in vitro using a human monocytic leukemia U937 or mouse L929 fibrosarcoma cells in a necroptosis assay. As determined using the method described in S. He et al., Cell, 137(6):1100-1111 (2009) and International Patent Appln. No. PCT/IB2014/059004, now, International Patent Appln. Pub.
Viability was measured by quantitating cellular levels of ATP using the Cell Titer-Glo kit. All data are means±standard deviation of the mean.

The subject of data set [2] is TNF-driven systemic inflammatory response syndrome model. In words: TNF-driven systemic inflammatory response syndrome model (TNF/zVAD or TNF alone), temperature loss. It is filed as in vivo. The conditions noted are these: Mus musculus, po, pre-dosed 15 minutes before i.v. mouse TNF alone or with zVAD; for inhibition in vivo at 10 mg/kg: 10 mg/kg PO. An excerpt: The efficacy of RIP1 inhibitors can be tested in mice in vivo using a TNF-driven systemic inflammatory response syndrome model (L. Duprez et al. Immunity 35(6):908-918, (2011)) using TNF plus the caspase inhibitor zVAD or TNF alone. The TNF/zVAD model is terminated at ˜3 hrs and the TNF alone model is terminated at ˜8 hrs (under IACUC guidelines for temperature loss). TNF (or TNF/zVAD) induced manifestations include temperature loss, the production of numerous cytokines (including IL-6, IL-1b, MIP1β and MIP2) in the periphery, liver and intestinal inflammation and an increase of markers of cellular (LDH and CK) and liver damage (AST and ALT) in the serum. Inhibition of these TNF alone or TNF/zVAD induced manifestations can be shown by PO pre-dosing with selected compounds. For example, mice (8 mice per group) were pre-dosed PO with vehicle or compound 15 minutes before i.v. administration of mouse TNF (30 μg/mouse) alone or in combination with zVAD (0.4 mg/mouse) simultaneously. Temperature loss in the mice was measured by rectal probe. The study was terminated when the control group lost 7 degrees, per our IACUC protocol. All data are shown as means±standard error of the mean.

A further data set has as its target T1, RIP1 kinase (Homo sapiens, UniProt Q13546).
T1 sequence (Q13546 1-375 limits assumed): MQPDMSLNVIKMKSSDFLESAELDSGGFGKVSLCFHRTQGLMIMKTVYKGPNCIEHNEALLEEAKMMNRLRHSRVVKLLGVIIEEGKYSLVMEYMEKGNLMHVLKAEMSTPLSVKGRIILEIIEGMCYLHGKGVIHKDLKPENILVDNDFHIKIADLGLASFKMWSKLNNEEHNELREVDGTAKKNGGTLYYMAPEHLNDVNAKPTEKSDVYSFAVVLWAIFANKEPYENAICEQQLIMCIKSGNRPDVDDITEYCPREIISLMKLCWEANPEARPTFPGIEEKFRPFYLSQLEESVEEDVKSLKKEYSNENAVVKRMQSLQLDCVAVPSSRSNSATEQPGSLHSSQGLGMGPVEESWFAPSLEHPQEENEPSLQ
In words: fluorescent polarization based binding assay. The note with it: mean of a minimum of 2 experiments. From the text: A fluorescent polarization based binding assay was used to assess the activity of the compounds of this invention, the details of which are disclosed in International Patent Appln. No. PCT/IB2014/059004, now, International Patent Appln. Pub.

For data set [3], the system named is human monocytic leukemia U937 cells. In words: necroptosis assay in U937 cells. The note with it: viability by cellular ATP (Cell Titer-Glo). The format is cell-based. The gist of the method:
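Necroptosis was induced in human U937 or mouse L929 cells, and viability was quantified as cellular ATP with Cell Titer-Glo. Data are means±standard deviation.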
A general note: ATP-based viability assays read luminescence as a measure of living cells.

The conditions of data set [4]: background statement; cited from earlier work.

Consider `NC(=O)c1cc(N2CCC(C(=O)N3N=CC[C@H]3c3cncc(F)c3)CC2)ncn1` [Example 108, (S)-6-(4-(5-(5-fluoropyridin-3-yl)-4,5-dihydro-1H-pyrazole-1-carbonyl)piperidin-1-yl)pyrimidine-4-carboxamide], for which the IC50 in data set [1] was around 10 µM; on RIP1 kinase, 0.001 to 0.0316 µM and ~0.0316 µM. Moreover, the inhibition in vivo at 0.1 mg/kg in data set [2] (0.1 mg/kg PO) was -4%. In addition, in data set [2] (1.0 mg/kg PO), the inhibition in vivo at 1 mg/kg is -11%. Also, in data set [2], the inhibition in vivo at 10 mg/kg stood at 54%. Besides, the inhibition in vivo at 100 mg/kg in data set [2] (100 mg/kg PO) was found to be 94%. Moreover, the “pIC50, inhibited necrosis in U937 cells” value in data set [3] (U937 cells) is around 7.3.
`CN1C(=O)C(Cc2c[nH]c3ccccc23)NC1=S` (stereo not drawn) [Necrostatin-1]: the oral bioavailability entry in data set [4] was “poor”.
For the molecule `NC(=O)c1cnc(N2CCC(C(=O)N3N=CC[C@H]3c3ccccc3)CC2)nc1` [Example 131, (S)-2-(4-(5-phenyl-4,5-dihydro-1H-pyrazole-1-carbonyl)piperidin-1-yl)pyrimidine-5-carboxamide], the IC50 is around 3.98 µM in data set [1]; around 0.0398 µM at RIP1 kinase; around 0.158 µM in data set [3] (Homo sapiens, U-937, U937 cells, read-out: pIC50, inhibited necrosis in U937 cells (converted)). Also, the inhibition in vivo at 10 mg/kg in data set [2] worked out at 83%.
On to `N#Cc1cccc([C@@H]2CC=NN2C(=O)C2CCN(c3nccc(C(N)=O)n3)CC2)c1` [Example 71, (S)-2-(4-(5-(3-cyanophenyl)-4,5-dihydro-1H-pyrazole-1-carbonyl)piperidin-1-yl)pyrimidine-4-carboxamide], for which the IC50 in data set [1] was around 0.794 µM; on RIP1 kinase it was 0.001 to 0.0316 µM and ~0.0158 µM. Further, in data set [2], the inhibition in vivo at 10 mg/kg came out at 93%.
For the molecule `NC(=O)c1cc(N2CCC(C(=O)N3N=CC[C@H]3c3cc(F)cc(F)c3)CC2)ncn1` [Example 85, (S)-6-(4-(5-(3,5-difluorophenyl)-4,5-dihydro-1H-pyrazole-1-carbonyl)piperidin-1-yl)pyrimidine-4-carboxamide], the IC50 in data set [1] was around 0.316 µM; at RIP1 kinase, 0.001 to 0.0316 µM and 0.001 to 0.01 µM and ~0.01 µM. Besides, the inhibition in vivo at 3 mg/kg in data set [2] (3 mg/kg PO) turned out to be 88%.

The record behind these values is patent US20190345138A1, “HETEROCYCLIC AMIDES AS KINASE INHIBITORS” (GlaxoSmithKline Intellectual Property Development Limited, priority 2016, published 2019).
